Measured values as given in patent publication US10759796B2, “CXCR4 inhibitors and uses thereof” (X4 Pharmaceuticals, Inc., priority 2016, dated 2020).

Key:
[1] = molecular target: Jurkat cells expressing CXCR4 (Homo sapiens (Human), UniProt P61073); assay: Chemokine (CXCL12-AF647) binding inhibition assay; conditions: CXCL12-AF647 25 ng/mL, read-out: IC50 CXCL-12 binding Jurkat
Method in brief: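 Cells in HBSS, 20 mM HEPES, 0.2% BSA, pH 7.4, preincubated 15 min at room temperature with compound, then 25 ng/mL CXCL12-AF647 for 30 min. After washing and paraformaldehyde fixation, bound ligand read by flow cytometry; percent inhibition calculated from MFI relative to unlabeled and ligand-only controls.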

[2] = molecular target: CXCR-4 transfected U87 cell line (U87.CXCR4) (Homo sapiens (Human), UniProt P61073); assay: Intracellular CXCL-12-induced calcium mobilization assay (FLIPR); assay type: cell-based; conditions: U87.CXCR4 cells, CXCL-12 25-50 ng/mL; read-out: IC50 CXCL-12 Ca2+ flux U87.CXCR4+
CXCR-4 transfected U87 cell line (U87.CXCR4), sequence (P61073 whole entry): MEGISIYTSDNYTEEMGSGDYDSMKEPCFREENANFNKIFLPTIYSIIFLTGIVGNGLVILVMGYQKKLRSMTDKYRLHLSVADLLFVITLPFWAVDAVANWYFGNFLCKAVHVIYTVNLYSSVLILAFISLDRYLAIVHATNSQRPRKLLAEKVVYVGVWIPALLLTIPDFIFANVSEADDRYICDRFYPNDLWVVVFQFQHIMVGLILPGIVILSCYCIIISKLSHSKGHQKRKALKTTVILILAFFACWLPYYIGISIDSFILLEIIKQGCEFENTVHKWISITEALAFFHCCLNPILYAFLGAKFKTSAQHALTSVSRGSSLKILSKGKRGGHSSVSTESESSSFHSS
Method in brief: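 U87.CXCR4 cells were seeded at 20,000 per well, cultured 12 hours, then loaded with 4 μM Fluo-2 AM for 45 min at 37° C. in HBSS with 20 mM HEPES and 0.2% BSA, pH 7.4. Calcium flux triggered by CXCL-12 (25-50 ng/mL) was tracked over time by FLIPR fluorescence at 37° C.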

in vitro = conditions: human, Caco-2, pH 7.4
Method in brief: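 Compounds at 10 μM in HBSS pH 7.4 (0.1–0.3% DMSO) were dosed on Caco-2 monolayers, apical-to-basolateral and basolateral-to-apical, for 90 min at 37 °C, in duplicate. Monolayer integrity was checked by TEER and lucifer yellow flux, read by fluorescence at 485/535 nm. Compound was quantified by LC-MS/MS and Papp calculated.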

Jurkat cells expressing CXCR4, sequence (P61073 whole entry): as above

IC50 [1] [nM] | IC50 [2] [nM] | Papp A→B at 90 min, 10 μM (in vitro) [nm/s] | Papp B→A at 90 min, 10 μM (in vitro) [nm/s] | efflux ratio at 90 min, 10 μM (in vitro) | SMILES
0.01 to 100 | 0.01 to 100 | 1 to 100 | 100 to 300 | 0.1 to 10 | Cc1cccnc1[C@@H]1CCC[C@H](c2nc3cccc(N4CCN(C)CC4)n3c2COC2CC2)N1C [Compound I-85]
0.01 to 100 | 0.01 to 100 | 1 to 100 | 100 to 300 | 10 to 30 | Cc1cccnc1[C@@H]1CCC[C@H](c2nc3cccc(N4CCN(C)CC4)n3c2C)N1C [Compound I-86]
0.01 to 100 | 0.01 to 100 | 1 to 100 | 100 to 300 | 10 to 30 | Cc1cccnc1[C@@H]1CCC[C@H](c2cn3c(N4CCN(C)CC4)cccc3n2)N1CCO [Compound I-87]
0.01 to 100 | 0.01 to 100 | 1 to 100 | 1 to 100 | 0.1 to 10 | CCN1CCN(c2cccc3nc([C@H]4CCC[C@@H](c5ncccc5C)N4C)c(Cl)n23)CC1 [Compound I-88]
0.01 to 100 | 0.01 to 100 | 1 to 100 | 1 to 100 | 0.1 to 10 | C#Cc1c([C@H]2CCC[C@@H](c3ncccc3C)N2C)nc2cccc(N3CCN(C)CC3)n12 [Compound I-89]
0.01 to 100 | 0.01 to 100 | 1 to 100 | 1 to 100 | 0.1 to 10 | Cc1cccnc1[C@@H]1CCC[C@H](c2nc3cccc(N4CCN(C(C)C)CC4)n3c2Cl)N1C [Compound I-92]
0.01 to 100 | 100 to 1000 | 100 to 300 | 1 to 100 | 0.1 to 10 | Cc1cccnc1[C@@H]1CCC[C@H](c2nc3cccc(N4CCN(C5CC5)CC4)n3c2Cl)N1C [Compound I-93]
0.01 to 100 | 100 to 1000 | 100 to 300 | 100 to 300 | 0.1 to 10 | Cc1cccnc1[C@@H]1CCC[C@H](c2nc3cccc(N4CCN(C5CC5)CC4)n3c2CO)N1C [Compound I-112]
0.01 to 100 | 0.01 to 100 | 1 to 100 | 1 to 100 | 0.1 to 10 | Cc1cccnc1[C@@H]1CCC[C@H](c2nc3cccc(N4CCN5CCCC5C4)n3c2Cl)N1C (some centres unmarked) [Compound I-113]
0.01 to 100 | 0.01 to 100 | 1 to 100 | 100 to 300 | 0.1 to 10 | CN1CCN(c2cccc3nc([C@H]4CCC[C@@H](c5ncccc5Cl)N4C)c(CO)n23)CC1 [Compound I-116]
0.01 to 100 | ≥ 1000 | 1 to 100 | 1 to 100 | 0.1 to 10 | CC(C)N1CCN(c2cccc3nc([C@H]4CCC[C@@H](c5ncccc5Cl)N4C)c(Cl)n23)CC1 [Compound I-123]
0.01 to 100 | 100 to 1000 | 1 to 100 | 1 to 100 | 0.1 to 10 | CCN1CCN(c2cccc3nc([C@H]4CCC[C@@H](c5ncccc5Cl)N4C)c(Cl)n23)CC1 [Compound I-125]
0.01 to 100 | 0.01 to 100 | 1 to 100 | 1 to 100 | 0.1 to 10 | Cc1cccnc1[C@@H]1CCC[C@H](c2nc3cccc(N4CCN(C)CC4)n3c2Cl)N1C(C)C [Compound I-127]
0.01 to 100 | 0.01 to 100 | 1 to 100 | 100 to 300 | 10 to 30 | CN(C)C1CCN(c2cccc3nc([C@H]4CCC[C@@H](c5ncccc5Cl)N4C)c(CO)n23)CC1 [Compound I-136]
0.01 to 100 | 100 to 1000 | 1 to 100 | > 300 | > 30 | CC[C@@H](O)c1c([C@H]2CCC[C@@H](c3ncccc3C)N2C)nc2cccc(N3CCN(C)CC3)n12 [Compound I-139]
0.01 to 100 | 100 to 1000 | 1 to 100 | 100 to 300 | 0.1 to 10 | C/C=C/c1c([C@H]2CCC[C@@H](c3ncccc3C)N2C)nc2cccc(N3CCN(C)CC3)n12 [Compound I-141]

Continued, compound first:

SMILES | IC50 [1] [nM] | IC50 [2] [nM] | Papp A→B at 90 min, 10 μM (in vitro) [nm/s] | Papp B→A at 90 min, 10 μM (in vitro) [nm/s] | efflux ratio at 90 min, 10 μM (in vitro)
CN1CCN(c2cccc3nc([C@H]4CCC[C@@H](c5ncccc5OC(F)(F)F)N4C)cn23)CC1 [Compound I-81] | 0.01 to 100 | 100 to 1000 | 100 to 300 | 100 to 300 | 0.1 to 10
CN1CCN(c2cccc3nc([C@H]4CCC[C@@H](c5ncccc5Cl)N4C)cn23)CC1 [Compound I-82] | 0.01 to 100 | 0.01 to 100 | 1 to 100 | 100 to 300 | 0.1 to 10
Cc1cccnc1[C@@H]1CCC[C@H](c2nc3ccccn3c2C=C2CCN(C)CC2)N1C [Compound I-83] | 0.01 to 100 | 100 to 1000 | 1 to 100 | 100 to 300 | 10 to 30
CC(C)c1cccnc1[C@@H]1CCC[C@H](c2nc3cccc(N4CCN(C)CC4)n3c2Cl)N1C [Compound I-91] | 100 to 1000 | ≥ 1000 | 1 to 100 | 1 to 100 | 0.1 to 10
CO[C@H](c1c([C@H]2CCC[C@@H](c3ncccc3C)N2C)nc2ccccn12)C1CCN(C)CC1 [Compound I-104] | 0.01 to 100 | 100 to 1000 | 1 to 100 | 100 to 300 | > 30
CO[C@@H](c1c([C@H]2CCC[C@@H](c3ncccc3C)N2C)nc2ccccn12)C1CCN(C)CC1 [Compound I-105] | 100 to 1000 | ≥ 1000 | 1 to 100 | 100 to 300 | > 30
Cc1cccnc1[C@@H]1CCC[C@H](c2cn3c(N4CCN(C)CC4)c(F)ccc3n2)N1C [Compound I-106] | 0.01 to 100 | 0.01 to 100 | 1 to 100 | 100 to 300 | 0.1 to 10
Cc1cccnc1[C@@H]1CCC[C@H](c2cn3c(N4CC5CCC(C4)N5)cccc3n2)N1C [Compound I-109] | 0.01 to 100 | 100 to 1000 | 1 to 100 | 100 to 300 | > 30
Cc1cccnc1[C@@H]1CCC[C@H](c2cn3c(N4C5CCC4CNC5)cccc3n2)N1C [Compound I-110] | 0.01 to 100 | 0.01 to 100 | 1 to 100 | 100 to 300 | > 30
CCN1CCN(c2cccc3nc([C@H]4CCC[C@@H](c5ncccc5C(C)C)N4C)cn23)CC1 [Compound I-111] | 100 to 1000 | ≥ 1000 | 1 to 100 | 1 to 100 | 0.1 to 10
Cc1cccnc1[C@@H]1CCC[C@H](c2cn3c(N4CCN(C)CC4)cccc3n2)N1C(C)C [Compound I-126] | 0.01 to 100 | 0.01 to 100 | 1 to 100 | 100 to 300 | 10 to 30
CN(C)C1CCN(c2cccc3nc([C@H]4CCC[C@@H](c5ncccc5Cl)N4C)c(Cl)n23)CC1 [Compound I-132] | 0.01 to 100 | 100 to 1000 | 1 to 100 | 1 to 100 | 0.1 to 10
CN1CC2CCC(C1)N2c1cccc2nc([C@H]3CCC[C@@H](c4ncccc4Cl)N3C)c(CO)n12 [Compound I-134] | 0.01 to 100 | 0.01 to 100 | 100 to 300 | 100 to 300 | 0.1 to 10
CN1C2CCC1CN(c1cccc3nc([C@H]4CCC[C@@H](c5ncccc5Cl)N4C)c(CO)n13)C2 [Compound I-135] | 0.01 to 100 | 0.01 to 100 | 1 to 100 | 100 to 300 | 0.1 to 10
Cc1cccnc1[C@@H]1CCC[C@H](c2nc3cccc(N4CC5CCC(C4)N5C)n3c2Cl)N1C [Compound I-137] | 0.01 to 100 | 100 to 1000 | 1 to 100 | 1 to 100 | 0.1 to 10
Cc1cccnc1[C@@H]1CCC[C@H](c2nc3cccc(N4C5CCC4CN(C)C5)n3c2Cl)N1C [Compound I-138] | 0.01 to 100 | 0.01 to 100 | 100 to 300 | 100 to 300 | 0.1 to 10
CN(C)C1CCN(c2cccc3nc([C@H]4CCC[C@@H](c5ncccc5Cl)N4C)cn23)CC1 [Compound I-142] | 0.01 to 100 | 0.01 to 100 | 1 to 100 | 100 to 300 | 0.1 to 10
CN1CCN(c2cccc3nc([C@H]4CCC[C@@H](c5ncccc5Cl)N4)c(Cl)n23)CC1 [Compound I-147] | 0.01 to 100 | 100 to 1000 | 100 to 300 | 100 to 300 | 0.1 to 10
